# Key:
# [1] = biological target: T1, Hedgehog acyltransferase (Hhat) (Homo sapiens, UniProt Q5VTY9); assay: YnPal palmitoylation tagging in HEK-293 Shh+ cells, spike-in SILAC quantitative proteomics (Western blot TC50 […]); assay type: cell-based
# [2] = biological target: T1, Hedgehog acyltransferase (Hhat); assay: YnPal palmitoylation profiling in cells by quantitative proteomics; assay type: cell-based
# T1 sequence (Q5VTY9 whole entry): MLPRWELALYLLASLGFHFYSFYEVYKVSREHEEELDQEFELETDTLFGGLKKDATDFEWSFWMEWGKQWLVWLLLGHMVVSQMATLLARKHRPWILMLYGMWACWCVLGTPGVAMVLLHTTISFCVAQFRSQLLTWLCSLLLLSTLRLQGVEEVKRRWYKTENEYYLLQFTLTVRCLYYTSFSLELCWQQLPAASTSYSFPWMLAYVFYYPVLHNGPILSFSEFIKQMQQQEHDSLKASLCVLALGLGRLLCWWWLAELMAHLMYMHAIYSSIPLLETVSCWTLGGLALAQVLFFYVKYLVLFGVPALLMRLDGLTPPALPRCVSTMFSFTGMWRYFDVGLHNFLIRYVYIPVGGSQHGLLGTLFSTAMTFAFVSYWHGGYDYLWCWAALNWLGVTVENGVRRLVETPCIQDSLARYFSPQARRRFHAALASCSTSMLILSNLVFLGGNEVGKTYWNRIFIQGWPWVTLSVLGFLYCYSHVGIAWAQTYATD
SMILES,IC50 [1] [nM],YnPal palmitoylation profiling in cells by quantitative proteomics [2]
CCC(C)CNCC(=O)N1CCc2sccc2C1c1cccc(C)n1 (racemic) [RUSKI-201],730 ± 90,
C=CCNCC(=O)N1CCc2sccc2C1COc1ccc(Cl)cc1 (centres unmarked) [RUSKI-41],,"RUSKI-41 also inhibited only Hh palmitoylation (Supporting Information Figure S6, Table S2)"

# From paper PMC5349656, “Characterization of Hedgehog Acyltransferase Inhibitors Identifies a Small Molecule Probe for Hedgehog Signaling by Cancer Cells” (ACS Chemical Biology, 2016)
